The values below come from ChEMBL document CHEMBL4483862, “Open-source discovery of chemical leads for next-generation chemoprotective antimalarials” (2018).

This assay relates to Plasmodium berghei. In words: Luciferase/luciferin-expressing antifolate-resistant parasites were used to infect a culture of HepG2 cells that were pre-incubated with compounds. Infected hepatocytes emit light due to the luciferase reaction. Assay results are presented as the percent inhibition of light emission compared to control. […]. The format is functional. The conditions noted are these: sporozoite; for IC90: read-out: LUCIFERASE INFECTION ASSAY - IC90.

[1] abbreviates: read-out: LUCIFERASE INFECTION ASSAY - IC50.

Structures are written as SMILES.

Regarding `CN(C)CCNC(=O)c1ccc(-c2cn3c(-c4cccs4)cnc3cn2)cc1`, the IC90 was greater than 8.43 µM. Moreover, under “HEPG2TOX_HILL_SLOPE 7.97, HEPG2TOX_R_SQUARED 0.151, read-out: LUCIFERASE INFECTION ASSAY - IC50”, the IC50 was greater than 8.43 µM.

For `Cc1ccc(Nc2nc(NCCO)c3ccccc3n2)cc1`, the IC90 was greater than 10 µM. In addition, under setting [1], the IC50 came out at 4.79 µM.

As to `C=CCNC(=O)NC(=O)COC(=O)c1c2c(nc3ccccc13)/C(=C/c1cccs1)CCC2`, the IC90 was greater than 10 µM. The IC50 (PBLUC_HILL_SLOPE 2.17, PBLUC_R_SQUARED 0.466, read-out: LUCIFERASE INFECTION ASSAY - IC50) is 7.2 µM.

With `Cn1cc(C(=O)Nc2ccc(Sc3ccc(Br)cc3)cc2)cn1`, the IC90 was 6.49 µM. Besides, under “HEPG2TOX_HILL_SLOPE 16.3, HEPG2TOX_R_SQUARED 0.811, PBLUC_HILL_SLOPE 1.99, PBLUC_R_SQUARED 0.873, read-out: LUCIFERASE INFECTION ASSAY - IC50”, the IC50 is 2.15 µM.

For the compound `Oc1ccc2ccccc2c1/C=N/Nc1nnc(-c2ncc[nH]2)c2ccccc12`, the IC90 turned out to be 4.64 µM. Besides, the IC50 (HEPG2TOX_HILL_SLOPE 2.06, HEPG2TOX_R_SQUARED 0.877, PBLUC_HILL_SLOPE 10.4, PBLUC_R_SQUARED 0.915, read-out: LUCIFERASE INFECTION ASSAY - IC50) turned out to be 3.76 µM.

Take `Cc1ccc(CSc2nccc(-c3c(C)nc4ccccn34)n2)cc1`: the IC90 is greater than 9.53 µM. Also, the IC50 (HEPG2TOX_HILL_SLOPE 2.56, HEPG2TOX_R_SQUARED 0.969, PBLUC_HILL_SLOPE 4.1, PBLUC_R_SQUARED 0.204, read-out: LUCIFERASE INFECTION ASSAY - IC50) was determined as 6.17 µM.

For `CC(=O)Nc1ccc(S(=O)(=O)NCCC(=O)OCc2ccccc2F)cc1`, the IC90 is greater than 10 µM. Further, under setting [1], the IC50 was greater than 10 µM.

For `Cc1nnc(S(=O)(=O)CC(=O)N2CCc3ccccc32)n1C`, the IC90 is greater than 10 µM. Besides, the IC50 (FFLUC_HILL_SLOPE 11.6, FFLUC_R_SQUARED 0.688, read-out: LUCIFERASE INFECTION ASSAY - IC50) is greater than 10 µM.

`CC(Sc1nc(-c2ccccc2)c(-c2ccccc2)o1)C(=O)NCc1ccco1` (centres undefined): the IC90 came out at 8.62 µM. Besides, the IC50 (HEPG2TOX_HILL_SLOPE 0.891, HEPG2TOX_R_SQUARED 0.604, PBLUC_HILL_SLOPE 2.26, 2.77, PBLUC_R_SQUARED 0.745, 0.857, read-out: LUCIFERASE INFECTION ASSAY - IC50) was determined as 5.29 µM.

In the case of `CN(C)CCNCc1ccc(OC2CCCC2)cc1`, the IC90 was greater than 11 µM. Further, the IC50 under setting [1] is greater than 11 µM.

Consider `CN1/C(=C/C=C/c2ccc3ccccc3[n+]2C)C=Cc2ccccc21`, for which the IC90 is 2.78 µM. The IC50 under setting [1] came out at 2.47 µM.

Turning to `Cc1ccn2cc(C(=O)Nc3nc(C(C)C)cs3)nc2c1`, the IC90 was greater than 10 µM. Moreover, where the note is “PBLUC_HILL_SLOPE 42, PBLUC_R_SQUARED 0.63, read-out: LUCIFERASE INFECTION ASSAY - IC50”, the IC50 is 9.53 µM.

On to `C/C(=N\N=C(N)N)c1ccc(Cl)c(Cl)c1`, for which the IC90 was greater than 10 µM. The IC50 (PBLUC_HILL_SLOPE 2.49, PBLUC_R_SQUARED 0.254, read-out: LUCIFERASE INFECTION ASSAY - IC50) worked out at 4.31 µM.

For `CCOC(=O)Cn1c(=O)c2c3c(sc2n(Cc2ccccc2)c1=O)CCCC3`, the IC90 is greater than 8.28 µM. Further, the IC50 (FFLUC_HILL_SLOPE 1.15, FFLUC_R_SQUARED 0.544, PBLUC_HILL_SLOPE 1.19, PBLUC_R_SQUARED 0.498, read-out: LUCIFERASE INFECTION ASSAY - IC50) was 3.9 µM.

Consider `O=C(Nc1ccc(-c2nccs2)cc1)c1occc1COc1ccccc1`, for which the concentration for an effect of 90% (IC90) was greater than 10 µM. Moreover, the IC50 under setting [1] was greater than 10 µM.

For `Cc1cccnc1NC(=O)c1ccc(Cl)c(S(=O)(=O)N(Cc2ccccc2)c2ccccc2)c1`, the IC90 was greater than 10 µM. Also, where the note is “PBLUC_HILL_SLOPE 2.12, PBLUC_R_SQUARED 0.451, read-out: LUCIFERASE INFECTION ASSAY - IC50”, the IC50 is 5.79 µM.

As to `CC(C)(C)c1ccc(OCc2ccc(C(=O)N3CCN(CC(=O)NC4CC4)CC3)cc2)cc1`, the IC90 is greater than 10 µM. Moreover, under “HEPG2TOX_HILL_SLOPE 1.95, HEPG2TOX_R_SQUARED 0.886, PBLUC_HILL_SLOPE 11.8, PBLUC_R_SQUARED 0.642, read-out: LUCIFERASE INFECTION ASSAY - IC50”, the IC50 worked out at 8.43 µM.

For the compound `CC(Sc1nc(Nc2ccccc2)c2ccccc2n1)C(=O)Nc1sccc1C#N` (centres undefined), the IC90 is greater than 10 µM. For the same compound, under “HEPG2TOX_HILL_SLOPE 2.3, HEPG2TOX_R_SQUARED 0.812, read-out: LUCIFERASE INFECTION ASSAY - IC50”, the IC50 was greater than 10 µM.

Turning to `Cc1c(C)n(CCCN(C)C)c2ncn3nc(-c4ccc(N(C)C)cc4)nc3c12`, the IC90 is greater than 8.43 µM. Moreover, the IC50 (PBLUC_HILL_SLOPE 1.37, PBLUC_R_SQUARED 0.575, read-out: LUCIFERASE INFECTION ASSAY - IC50) came to 3.73 µM.

On to `CN(c1ccccc1)S(=O)(=O)c1cccc(NC(=O)Nc2ccccc2[N+](=O)[O-])c1`, for which the IC90 was greater than 10 µM. In addition, the IC50 under setting [1] was greater than 10 µM.

Consider `CCN1CCN(C(=O)C23CC4CC(C2)CC(c2ccc(C)cc2)(C4)C3)CC1`, for which the IC90 is greater than 10 µM. The IC50 under setting [1] is greater than 10 µM.

`Oc1c(C(Nc2ncccn2)c2ccc(F)cc2)ccc2cccnc12` (centres undefined): the IC90 came to 3.55 µM. Where the note is “FFLUC_HILL_SLOPE 12.3, FFLUC_R_SQUARED 0.0325, HEPG2TOX_HILL_SLOPE 1.16, HEPG2TOX_R_SQUARED 0.848, PBLUC_HILL_SLOPE 14, PBLUC_R_SQUARED 0.306, read-out: LUCIFERASE INFECTION ASSAY - IC50”, the IC50 came out at 3.03 µM.

Consider `COc1ccc(-c2nnc(SCC(=O)Nc3cc(-c4cc(C)c(C)cc4C)nn3-c3ccccc3)n2C(C)C)cc1`, for which the IC90 was greater than 10 µM. The IC50 under setting [1] is greater than 10 µM.

Take `Cc1ccc(S(=O)(=O)Nc2ccc(Nc3nccn4c(-c5ccccc5Oc5ccccc5)cnc34)cc2)cc1`: the IC90 stood at 5.41 µM. In addition, for the setting “PBLUC_HILL_SLOPE 1.64, PBLUC_R_SQUARED 0.733, read-out: LUCIFERASE INFECTION ASSAY - IC50”, the IC50 is 1.42 µM.

With `Cc1cc(C(=O)C(C)Sc2nnnn2C2CC2)c(C)n1-c1ccccc1` (centres undefined), the IC90 was 7.24 µM. The IC50 (PBLUC_HILL_SLOPE 0.896, PBLUC_R_SQUARED 0.762, read-out: LUCIFERASE INFECTION ASSAY - IC50) is 0.623 µM.

Consider `CCOC(=O)c1sc(N2N=C3/C(=C/c4ccccc4Cl)CCCC3C2c2ccccc2Cl)nc1C` (centres undefined), for which the IC90 is greater than 10 µM. For the same compound, the IC50 (FFLUC_HILL_SLOPE 1.4, FFLUC_R_SQUARED 0.297, PBLUC_HILL_SLOPE 2.64, PBLUC_R_SQUARED 0.0563, read-out: LUCIFERASE INFECTION ASSAY - IC50) stood at 4.97 µM.

In the case of `O=C1C(=O)N(Cc2ccco2)C(=O)N1Cc1ccc(-c2ccccc2)cc1`, the IC90 was greater than 10 µM. In addition, the IC50 (HEPG2TOX_HILL_SLOPE 17.7, HEPG2TOX_R_SQUARED 0.836, PBLUC_HILL_SLOPE 2.05, PBLUC_R_SQUARED 0.957, read-out: LUCIFERASE INFECTION ASSAY - IC50) came to 4.16 µM.

With `Cc1ccc(-n2nc(C)c(C(=O)Nc3ccccc3N3CCN(C)CC3)n2)c(C)c1`, the 90% effect concentration (IC90) is greater than 10 µM. Moreover, under “HEPG2TOX_HILL_SLOPE 0.399, HEPG2TOX_R_SQUARED 0.0602, read-out: LUCIFERASE INFECTION ASSAY - IC50”, the IC50 was greater than 10 µM.

Turning to `CN1C(=O)N(CCCc2ccncc2)C(=O)C12CCN(Cc1cc3ccccc3[nH]1)CC2`, the IC90 is greater than 7.65 µM. Besides, the IC50 (HEPG2TOX_HILL_SLOPE 1.79, HEPG2TOX_R_SQUARED 0.954, PBLUC_HILL_SLOPE 8.39, PBLUC_R_SQUARED 0.134, read-out: LUCIFERASE INFECTION ASSAY - IC50) worked out at 6.78 µM.

As for `COc1ccccc1CN1C(=O)C=CC1=O`, the IC90 was greater than 15.2 µM. Besides, where the note is “HEPG2TOX_HILL_SLOPE 11.1, HEPG2TOX_R_SQUARED 0.957, PBLUC_HILL_SLOPE 12.9, PBLUC_R_SQUARED 0.465, read-out: LUCIFERASE INFECTION ASSAY - IC50”, the IC50 turned out to be 13.8 µM.

In the case of `Cc1ccc(C)c(OC2CCN(C(=O)Nc3cc(C)on3)CC2)c1`, the IC90 was found to be 1.37 µM. The IC50 (HEPG2TOX_HILL_SLOPE 1.23, HEPG2TOX_R_SQUARED 0.839, PBLUC_HILL_SLOPE 15.3, PBLUC_R_SQUARED 0.595, read-out: LUCIFERASE INFECTION ASSAY - IC50) was found to be 1.19 µM.

Take `Cc1cccc2c(=O)n(CC(=O)NCc3ccc(C(=O)N4CCCCC4)cc3)cnc12`: the IC90 stood at 3.14 µM. Besides, for the setting “HEPG2TOX_HILL_SLOPE 1.92, HEPG2TOX_R_SQUARED 0.972, PBLUC_HILL_SLOPE 11.2, PBLUC_R_SQUARED 0.559, read-out: LUCIFERASE INFECTION ASSAY - IC50”, the IC50 amounted to 2.58 µM.

As to `Cc1cc(C)c(CSCCNC2=CC(=O)CC(c3ccc(Cl)cc3)C2)c(C)c1` (centres undefined), the IC90 was greater than 7.97 µM. In addition, the IC50 under setting [1] is greater than 7.97 µM.

As for `Clc1ccc(-c2cnc3cnc(-c4ccncc4)cn23)cc1`, the IC90 was 4.84 µM. The IC50 (PBLUC_HILL_SLOPE 2.25, PBLUC_R_SQUARED 0.741, read-out: LUCIFERASE INFECTION ASSAY - IC50) came to 1.82 µM.

Take `COc1ccc(-c2cn3c(-c4ccc(OC)nc4)cnc3cn2)cn1`: the IC90 was greater than 9.9 µM. Moreover, the IC50 (PBLUC_HILL_SLOPE 11.1, PBLUC_R_SQUARED 0.0252, read-out: LUCIFERASE INFECTION ASSAY - IC50) was found to be 9.58 µM.

Turning to `CCC(OC(=O)c1cc2ccccc2[nH]1)C(=O)Nc1cc(C)on1` (centres undefined), the IC90 is greater than 10 µM. Besides, the IC50 under setting [1] was greater than 10 µM.

`C/N=c1\scc(-c2ccc(C)c(C)c2)n1/N=C/c1ccc[nH]1`: the IC90 was greater than 10 µM. Besides, the IC50 (FFLUC_HILL_SLOPE 1.19, FFLUC_R_SQUARED 0.95, read-out: LUCIFERASE INFECTION ASSAY - IC50) was greater than 10 µM.
